# Test system: Botrytis cinerea
# Experiment: Necrotic leaf disc bioassay with interrupted wet period (laboratory)
# Type: cell-based
# Conditions: Table 2, necrotic kiwifruit leaf tissues, repeat bioassay
# Experimental: Discs (dia. 21 mm) were cut from mature unsprayed grape or kiwifruit leaves selected at random and placed between sheets of cardboard. The discs were gently dried at 40° C. for approximately 9 hours and then washed under running water for 10 minutes to remove any soluble nutrients. The leaf discs were then blot dried once more on sterile paper towels, dried at 40° C. for 6 hours, then sealed in plastic specimen jars, prior to sterilization by gamma-irradiation (4Mrad).
# Isolates were maintained on oatmeal agar (30 g finely ground oatmeal plus 20 g agar per litre of water) and incubated for 2 to 4 weeks at 20° C. illuminated according to a 12 hours day/night cycle. Fungal propagules were washed from the sporulating agar plates using sterile 0.01% (v/v) TWEEN®80 (polyoxyethylenesorbitan monooleate) in distilled water. […]
# High humidity incubation was interrupted by transferring the leaf disks from the humidity chambers to open petri dishes containing 2 layers of sterile dry (Whatman) filter disks. […] The area of leaf disk tissue with B. cinerea sporulation was assessed visually. […]
# Prior to analysis of variance, all data were arcsin transformed using an angular transformation to stabilise the variance and LSD values were calculated for purposes of mean separation […]
compound,measurement,value
CC(C)NC(=O)N1CC(=O)N(c2cc(Cl)cc(Cl)c2)C1=O [iprodione],% coverage of necrotic leaf tissue by B. cinerea conidiophores,20%
same,"Antagonist efficacy, percentage reduction of B. cinerea conidiophores compared to the B. cinerea control treatment",20%

# — patent publication US7407794B2, “Biological control of plant diseases” (The Horticulture and Food Research Institute of New Zealand …, priority 2001, dated 2008)
